These results are taken from patent US11111217B2, “2-arylbenzimidazoles as Ppargc1a activators for treating neurodegenerative diseases” (The Board of Trustees of the Leland Stanford Junior …, priority 2018, dated 2021).

Series [1] relates to Caco-2 cells. The series can be described thus: Caco-2 permeability assay. The conditions noted are these: 10 μM, HBSS pH 7.4, 37° C., 2 h; for Caco2 A → B: without elacridar.
Protocol: Caco-2 Permeability Assay Protocol
(§3) Caco-2 cells were maintained in DMEM in an atmosphere of 5% CO2. For transport experiments 5×10^5 cells/well of were seeded on polycarbonate filter inserts and allowed to grow and differentiate for 21±4 days before the cell monolayers were used for experiments. Apparent permeability coefficients were determined for A→B and B→A directions with and without the presence of elacridar as a transporter inhibitor. Up to three test items and reference compounds were dissolved in Hank's balanced salt solution at pH 7.4 to yield a final concentration of 10 μM.
(§4) The assays were performed in HBSS containing 25 mM HEPES (pH 7.4) at 37° C. Prior to the study, the monolayers were washed in prewarmed HBSS. At the start of the experiments prewarmed HBSS containing the test items was added to the donor side of the monolayer and HBSS without test items was added to the receiver side. Aliquots of the receiver side were taken over the 2 h incubation period; aliquots of the donor side were taken at 0 hand 2 h. Aliquots were diluted with an equal volume of methanol/water with 0.1% formic acid containing the internal standard. The mixture was analyzed by LC-MS/MS. The apparent permeability coefficients (Papp) were calculated using the formula: Papp=(dCrec/dt)/(A×C0,donor)]×106 with dCrev/dt being the change in concentration in the receiver compartment with time, C0,donor the concentration in the donor compartment at time 0, and A the area of the compartment with the cells.
A short description of series [2]: Caco-2 permeability assay. The conditions noted are these: human, Caco-2, pH 7.4, with elacridar (concentration not stated).
The test system of series [3] is TNF-α production by BV2 cells or PBMC. The series can be described thus: Cellular assay to measure TNF-α inhibition (LPS-stimulated, ELISA). Format: cell-based, murine (BV2) or human (PBMC). As to conditions: BV2 cells or PBMC (not specified), LPS 100 ng/ml over 24 hours, relative to DMSO vehicle; compound concentration not stated. The source says:
Oxidative metabolism exerts an anti-inflammatory effect on myeloid cell phenotype (O'Neill L A, Front Immunol. 2014) and Ppargc1a can promote this energy metabolic pathway (Spiegelman BM, Novartis Found Symp. 2007). Thus, pharmacological activation of Ppargc1a would be expected to inhibit the inflammatory response of myeloid cells. This phenomenon can be measured in cultures by a TNF-α inhibition assay.
Cellular Assay Protocol to Measure TNF-α Inhibition
The murine myeloid cell line BV2 or human peripheral blood mononuclear cells (PBMC) are cultured in RPMI 1640 media (Cat #11875119, Gibco) supplemented with 10% fetal bovine serum and 1% L-glutamine 1% penicillin. These cells are then stimulated with 100 ng/ml of lipopolysaccharide (LPS, O111:B34, Cat # L2630, Sigma) over 24 hours. LPS stimulation results in the secretion of the inflammatory cytokine TNF-α by BV2 cells or PBMC, which can be quantified by ELISA in culture supernatant samples per manufacturer's protocol (Cat #558273 for BV2 and Cat #558299 for PBMC, BD Biosciences). To determine whether exampl compounds 1-78 inhibit TNF-α production by BV2 cells or PBMC, the cells were cultured in the presence of the compounds at different concentrations, and fold reduction in TNF-α production relative to TNF-α production by the same cells cultured in the presence of dimethylsulfoxide (as vehicle control) was determined.

Series [4] is described as follows: Microsome stability assay, mouse liver microsomes. The conditions noted are these: pH 7.4, 1 μM test compound, NADPH 1 mM, 37° C., 0-40 mins, read-out: MLM t1/2. Format: in vitro ADME. The method, then:
(§1) Microsome Stability Assay Protocol
(§2) Human liver microsomes (Corning #452117 lot 38291) or Mouse liver microsomes (Corning #452701, lot #6328004) were separately combined at a final concentration of […] with KxPO4 pH 7.4 (100 mM), MgCl2 (10 mM), and test compound (1 μM) and pre-incubated (10 min, 37° C.). Next, NADPH (1 mM) was added to begin reactions (total volume 100 μL). At various time points (0, 10, 20, and 40 mins), reactions were quenched with Clem stop solution (100 μL, 625 ng/mL) (Cyprotex) in Acetonitrile. Samples were centrifuged at 4000 g for 20 mins, diluted (75 μL into 75 μL 0.1% formic acid in water), and analyzed by LC-MS/MS.

A short description of series [5]: Microsome stability assay, human liver microsomes. Type of series: in vitro ADME. The conditions noted are these: pH 7.4, 1 μM test compound, NADPH 1 mM, 37° C., 0-40 mins, read-out: HLM t1/2. The method, then: as §1, §2
Series [6] is described as follows: Pharmacokinetic study (mouse), levels of API after prodrug dosing. Type of series: in vivo. As to conditions: mice, 10 mg/kg p.o., 1 h, 2 h, 4 h; for brain levels of API (example 1 compound): brain at 0.5 h, LCMS (FIG. 2); for liver levels of API (example 1 compound): liver at 0.5 h, LCMS (FIG. 3); for plasma levels of API (example 1 compound): plasma at 0.5 h, LCMS (FIG. 1). The method, then: Pharmacokinetic studies (mouse) were performed on the example 1, 6-P, 8-P, and 11-P compounds of the present invention. The example 1, 6-P, 8-P, and 11-P compounds were dosed in mice at 10 mg/kg p.o. (n=2). Plasma, brain, and liver were harvested at 0.5 h, 1 h, 2 h, and 4 h. The samples were analyzed by LCMS to determine levels of the example 1 compound, i.e., the active pharmaceutical ingredient (API) for prodrug examples 6-P, 8-P, and 11-P.

The nature of the next series: in vitro. The conditions noted are these: human, Caco-2, pH 7.4.
For series [7], the system named is Caco-2 cells. As to conditions: human, Caco-2, 2 h, 10 μM, pH 7.4.
Protocol: Caco-2 Permeability Assay Protocol
as §3, §4

Each structure is given as a SMILES string. Like-named read-outs stand apart in the source and are kept apart here.

Protocol for in vitro: Caco-2 Permeability Assay Protocol
as §3, §4

Turning to `CC(C)(C)c1ccc(-c2nc3c(F)cc(F)cc3[nH]2)cc1` [Example 57, 2-(4-tert-Butylphenyl)-4,6-difluoro-1H-benzo[d]imidazole], in the series on Caco-2 cells [1], the “Caco2 B → A” value is given as 8.42 nm/s. Further, the “Caco2 A → B” value with Caco-2 cells [1] was found to be 11.1 nm/s. Further, the apparent permeability from apical to basolateral (Papp A→B) at 2 h, 10 μM in series [2] turned out to be 0.13 ×10⁻⁶ cm/s. Moreover, the “TNF α Inhibition” value in series [3] was “A (A = >80% inh.)”. Also, the half-life at 1 μM in series [4] stood at 46.7 min; in series [5], 99.2 min.

For `COc1ccc(-c2nc3ccccc3[nH]2)cc1` [Example 21, 2-(4-Methoxy-phenyl)-1H-benzo[d]imidazole], the “Caco2 A → B” value in the series on Caco-2 cells [1] is recorded as 93.2 nm/s. This compound also registered a Papp A→B at 2 h, 10 μM in series [2] of 3.31 ×10⁻⁶ cm/s. For the same compound, the “TNF α Inhibition” value in series [3] is recorded as “A (A = >80% inh.)”. Also, the half-life at 1 μM in series [4] was 3.2 min; in series [5], 4.2 min.

Regarding `CC(C)(C)c1ccc(-c2nc3cc(C(F)(F)F)ccc3[nH]2)cc1` [Example 42, 2-(4-tert-Butylphenyl)-5-(trifluoromethyl)-1H-benzo[d]imidazole], in the series with Caco-2 cells [1], the “Caco2 B → A” value is listed as 1.2 nm/s and the “Caco2 A → B” value amounted to 0.878 nm/s. In series [2], this compound returned a Papp A→B at 2 h, 10 μM of 0.0408 ×10⁻⁶ cm/s. In addition, the “TNF α Inhibition” value in series [3] is reported as “A (A = >80% inh.)”. Further, the half-life at 1 μM in series [4] was found to be 110 min. The half-life at 1 μM in series [5] is 83.8 min.

Turning to `CC(C)(C)c1ccc(-c2nc3c(F)c(F)ccc3[nH]2)cc1` [Example 55, 2-(4-tert-Butylphenyl)-4,5-difluoro-1H-benzo[d]imidazole], in the series on Caco-2 cells [1], the “Caco2 B → A” value worked out at 9.94 nm/s and the “Caco2 A → B” value turned out to be 4.27 nm/s. Moreover, the Papp A→B at 2 h, 10 μM in series [2] was determined as 0.0693 ×10⁻⁶ cm/s. The “TNF α Inhibition” value in series [3] was “A (A = >80% inh.)”. Also, in series [4], the half-life at 1 μM amounted to 21.4 min. Also, the half-life at 1 μM in series [5] was determined as 20.6 min.

With `CC(C)(C)c1ccc(-c2nc3ccccc3n2COC(=O)c2ccc(CN)cc2)cc1.Cl` [Example 8-P, (4-(((2-(4-(tert-butyl)phenyl)-1H-benzo[d]imidazol-1-yl)methoxy)carbonyl)-phenyl)methylammonium hydrochloride], in series [6], the “brain levels of API (example 1 compound)” value was “measurable amounts”, the “liver levels of API (example 1 compound)” value is reported as “measurable amounts” and the “plasma levels of API (example 1 compound)” value (“plasma levels of API” below) is reported as “measurable amounts”.

With `CC(C)(C)c1ccc(-c2nc3ccccc3n2COC(=O)CCC(=O)O)cc1` [Example 6-P, 4-((2-(4-(tert-Butyl)phenyl)-1H-benzo[d]imidazol-1-yl)methoxy)-4-oxobutanoic acid], in series [6], the “brain levels of API (example 1 compound)” value is “measurable amounts”, the “liver levels of API (example 1 compound)” value is “measurable amounts” and the “plasma levels of API” value is “measurable amounts”.

Turning to `[2H]c1c([2H])c([2H])c2[nH]c(-c3ccc(C(C)(C)C)cc3)nc2c1[2H]` [Example 60, 2-(4-tert-Butylphenyl)-4,5,6,7-tetradeuterio-1H-benzo[d]imidazole], in the series on Caco-2 cells [1], the “Caco2 B → A” value is given as 40.7 nm/s and the “Caco2 A → B” value is recorded as 15.8 nm/s. In series [2], this compound came in with a Papp A→B at 2 h, 10 μM of 0.916 ×10⁻⁶ cm/s. The “TNF α Inhibition” value in series [3] was “A (A = >80% inh.)”. Also, the half-life at 1 μM in series [4] stood at 19.8 min. The half-life at 1 μM in series [5] was found to be 14.3 min.

In the case of `CC(C)(C)c1ccc(-c2nc3c(C(F)(F)F)cccc3[nH]2)cc1` [Example 56, 2-(4-tert-Butylphenyl)-4-(trifluoromethyl)-1H-benzo[d]imidazole], the “Caco2 B → A” value in the series on Caco-2 cells [1] came to 1.73 nm/s. The “Caco2 A → B” value in the series on Caco-2 cells [1] is reported as 0.748 nm/s. The same compound showed a Papp A→B at 2 h, 10 μM in series [2] of 0.0849 ×10⁻⁶ cm/s. For the same compound, in series [3], the “TNF α Inhibition” value is recorded as “A (A = >80% inh.)”. Besides, the half-life at 1 μM in series [4] worked out at 23.2 min; in series [5], 103 min.

`CC(C)(C)c1ccc(-c2nc3c(F)c(F)c(F)c(F)c3[nH]2)cc1` [Example 63, 2-(4-tert-Butylphenyl)-4,5,6,7-tetrafluoro-1H-benzo[d]imidazole]: the “Caco2 B → A” value in the series on Caco-2 cells [1] is given as 1.31 nm/s. Further, the “Caco2 A → B w/ elacridar” value in the series with Caco-2 cells [1] (with elacridar as transporter inhibitor) came to 0.005 nm/s. The Papp A→B at 2 h, 10 μM in series [2] worked out at 0.0336 ×10⁻⁶ cm/s. Further, the “TNF α Inhibition” value in series [3] is on record as “A (A = >80% inh.)”. Also, the half-life at 1 μM in series [4] came out at 132 min; in series [5] it was 59.8 min.

Regarding `CC(C)(C)c1ccc(-c2nc3ccccc3[nH]2)cc1` [Example 1, 2-(4-(tert-Butyl)phenyl)-1H-benzo[d]imidazole], the “TNF α Inhibition” value in series [3] is “A (A = >80% inh.)”. In the series “in vitro”, this compound registered a Papp A→B at 2 h, 10 μM of 0.659 ×10⁻⁶ cm/s. Also, the “Caco2 B → A” value in the series on Caco-2 cells [7] was determined as 31.5 nm/s. Besides, the values for the half-life at 1 μM in series [4] and in series [5] were 16.7 min and 14 min, respectively.

As to `Nc1ccc(-c2nc3ccccc3[nH]2)cc1` [Example 76, 2-(4-Aminophenyl)-1H-benzo[d]imidazole], the “Caco2 A → B” value with Caco-2 cells [1] came to 47.8 nm/s. Moreover, the Papp A→B at 2 h, 10 μM in series [2] was found to be 3.11 ×10⁻⁶ cm/s. Also, the “TNF α Inhibition” value in series [3] is recorded as “A (A = >80% inh.)”. Besides, the values for the half-life at 1 μM in series [4] and in series [5] were 8.3 min and 25.4 min, respectively.

In the case of `CC(C)(C)c1ccc(-c2nc3ccccc3n2COP(=O)([O-])[O-])cc1.[Na+].[Na+]` [Example 11-P, Disodium ((2-(4-(tert-butyl)phenyl)-1H-benzo[d]imidazol-1-yl)methyl) phosphate], in series [6], the “brain levels of API (example 1 compound)” value is on record as “measurable amounts”, the “liver levels of API (example 1 compound)” value is “measurable amounts” and the “plasma levels of API” value was “measurable amounts”.

Regarding `CC(C)(C)c1cccc(-c2nc3ccccc3[nH]2)c1` [Example 58, 2-(3-tert-Butylphenyl)-1H-benzo[d]imidazole], the “Caco2 B → A” value in the series with Caco-2 cells [1] is recorded as 30.9 nm/s. Also, the “Caco2 A → B” value in the series with Caco-2 cells [1] stood at 21 nm/s. Also, the Papp A→B at 2 h, 10 μM in series [2] stood at 0.86 ×10⁻⁶ cm/s. In series [3], the “TNF α Inhibition” value is on record as “A (A = >80% inh.)”. Besides, the results for the half-life at 1 μM in series [4] and in series [5] were 4.7 min and 6.9 min, respectively.
